# From ChEMBL document CHEMBL1201862, “PubChem BioAssay data set” (2004)
# Calls of active or inactive are those of the source.
# Tests used:
# [1] = molecular target: T1, Voltage-gated N-type calcium channel alpha-1B subunit/Amyloid beta A4 precursor protein-binding family A member 1 (Homo sapiens, UniProt Q00975+Q02410); format: protein assay
# [2] = molecular target: T1, Voltage-gated N-type calcium channel alpha-1B subunit/Amyloid beta A4 precursor protein-binding family A member 1; format: protein assay; remark: listed apart in the source
# [3] = molecular target: 72 kDa type IV collagenase (Homo sapiens, UniProt P08253); assay: Dose Response validation of uHTS RPN11 inhibitor hits using a MMP-2 Fluorescence assay.; format: functional
# [4] = molecular target: T2, Carboxy-terminal domain RNA polymerase II polypeptide A small phosphatase 1 (Homo sapiens, UniProt Q9GZU7); assay: CTDSP1 inhibitors, concentration-response, biochemical, absorbance readout, ultra-high-throughput screen actives (AID 540297); format: functional
# T2 sequence (Q9GZU7 whole entry): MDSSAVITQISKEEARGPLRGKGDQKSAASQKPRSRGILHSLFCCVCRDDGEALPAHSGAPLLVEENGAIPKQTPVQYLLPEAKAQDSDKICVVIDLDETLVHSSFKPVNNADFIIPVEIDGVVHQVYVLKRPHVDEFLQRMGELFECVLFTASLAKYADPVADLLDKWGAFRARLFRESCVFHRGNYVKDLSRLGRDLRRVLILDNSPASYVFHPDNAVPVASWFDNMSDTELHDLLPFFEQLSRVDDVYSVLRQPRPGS
# [5] = molecular target: 26S proteasome non-ATPase regulatory subunit 14 (Homo sapiens, UniProt O00487); assay: inhibition of proteasome subunit RPN11 – biochemical, fluorescence polarization, uHTS hits, confirmation (AID 602368); format: functional
# [6] = molecular target: T3, Heat shock factor protein 1 (Mus musculus, UniProt P38532); assay: decrease of HSF1-responsive luciferase luminescence – cell-based, NIH3T3, dose retest, confirmation (AID 2382); format: functional;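 also: NIH3T3 fibroblasts with HSF1-driven luciferase reporter stressed by proteasome inhibitor MG132; luminescence from HSF1-driven luciferase expression after 8 hours of MG132 stress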
# T3 sequence (P38532 whole entry): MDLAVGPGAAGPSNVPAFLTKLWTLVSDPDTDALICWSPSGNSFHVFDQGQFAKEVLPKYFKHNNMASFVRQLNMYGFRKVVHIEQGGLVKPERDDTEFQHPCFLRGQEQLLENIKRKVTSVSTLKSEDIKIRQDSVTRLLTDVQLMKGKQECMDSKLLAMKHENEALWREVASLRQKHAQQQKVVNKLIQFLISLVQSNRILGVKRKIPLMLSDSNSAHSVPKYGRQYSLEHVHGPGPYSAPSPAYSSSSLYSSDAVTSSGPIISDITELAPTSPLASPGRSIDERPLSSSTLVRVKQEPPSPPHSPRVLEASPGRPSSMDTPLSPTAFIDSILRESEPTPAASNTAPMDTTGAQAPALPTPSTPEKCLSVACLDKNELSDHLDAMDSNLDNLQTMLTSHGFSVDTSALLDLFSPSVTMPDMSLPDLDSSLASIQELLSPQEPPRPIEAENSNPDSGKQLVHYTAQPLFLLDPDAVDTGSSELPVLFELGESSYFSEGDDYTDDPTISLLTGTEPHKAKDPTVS
# Prothrombin = Prothrombin (Bos taurus, UniProt P00735); assay: thrombin protease inhibitors – biochemical, fluorescence polarization, uHTS hits, dose response (AID 602369); format: functional
# [7] = A High Throughput Confirmatory Assay used to Identify Novel Compounds that Inhibit Mycobacterium Tuberculosis in the absence of Glycerol.; format: functional
# [8] = blockade of melanocortin 4 receptor signaling – cell-based, plate reader, cherry pick, counter-screen for LGR2 antagonist project, dose response (AID 743444); format: functional;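 also: transfected HEK 293 cells stimulated with alpha-MSH peptide; potency of inhibitors of the alpha-MSH evoked signal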
# [9] = toxicity toward HepG2 liver cells – cell-based, plate reader, cherry-pick, antagonist series, cytotoxicity control, dose response (AID 743416); format: functional
# [10] = viability loss in HEK293 cells – cell-based, plate reader, cherry-picked samples, cytotoxicity control, dose response (AID 743446); format: functional
# [11] = A549 cell cytotoxicity, dose response, cytotoxicity control, plate reader, cherry-pick, antagonist series (AID 743412); format: functional, cell-based
# [12] = Luminescence-based counterscreen assay for KLF5 inhibitors: dose response cell-based high throughput screening assay to identify cytotoxic compounds using the IEC-6 intestinal epithelial cell line. [Related pubchem assays: 1700 (Primary screen.), 1834 (Confirmation screen.), 1858 (Summary AID.), 1905 (Counterscreen.)]; format: functional
# [13] = blockers of bursicon-stimulated LGR2 cAMP reporter – cell-based, HEK293, CRE-luciferase reporter, cherry pick, set 2, dose response (AID 743343); format: functional;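 also: transfected cells were stimulated with diluted bursicon conditioned medium after compound addition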
# Estrogen receptor beta [14] = molecular target: T4, Estrogen receptor beta (Homo sapiens, UniProt Q92731);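 also: recombinant ER-beta bound to coactivator SRC1 peptide in presence of estradiol agonist; inhibitors block coactivator peptide binding and lower the FRET signal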
# T4 sequence (Q92731 whole entry): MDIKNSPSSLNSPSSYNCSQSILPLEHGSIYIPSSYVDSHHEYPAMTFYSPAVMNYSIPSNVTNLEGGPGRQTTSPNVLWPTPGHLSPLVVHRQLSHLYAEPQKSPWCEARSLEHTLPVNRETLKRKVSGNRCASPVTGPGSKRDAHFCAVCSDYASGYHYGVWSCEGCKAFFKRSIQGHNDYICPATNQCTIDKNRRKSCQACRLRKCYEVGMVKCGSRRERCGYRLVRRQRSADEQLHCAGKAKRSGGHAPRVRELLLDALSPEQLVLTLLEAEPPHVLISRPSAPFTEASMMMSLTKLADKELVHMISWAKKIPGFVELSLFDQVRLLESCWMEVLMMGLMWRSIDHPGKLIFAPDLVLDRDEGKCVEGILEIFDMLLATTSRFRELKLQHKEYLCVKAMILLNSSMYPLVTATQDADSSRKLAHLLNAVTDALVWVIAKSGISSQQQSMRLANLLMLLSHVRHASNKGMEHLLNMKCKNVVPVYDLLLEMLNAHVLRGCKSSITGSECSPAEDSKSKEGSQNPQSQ
# Estrogen receptor beta [15] = molecular target: T4, Estrogen receptor beta; assay: blockers of SRC-3 recruitment to ERβ – biochemical, ELISA, streptavidin-HRP readout, orthogonal assay, confirmation (AID 1060)
# HEK293 [16] = assay: cells; format: functional, cell-based; conditions: Homo sapiens
# HEK293 [17] = assay: NOD2 signaling inhibitors in MDP-stimulated cells, cell-based, uHTS, luminescence (AID 2001); format: functional; conditions: Homo sapiens
# HEK293 [18] = assay: cells; format: functional, cell-based; conditions: Homo sapiens; remark: listed apart in the source
# [19] = molecular target: T5, Microphthalmia-associated transcription factor (Homo sapiens, UniProt O75030); assay: reducers of TRPM1 reporter luminescence, concentration series – cell-based, SK-MEL-5, cherry-picked, set 3, MITF inhibitor project, dose response (AID 493073); format: functional;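 also: SK-MEL-5 melanoma cells with luciferase driven by the MITF target TRPM1 promoter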
# T5 sequence (O75030 whole entry): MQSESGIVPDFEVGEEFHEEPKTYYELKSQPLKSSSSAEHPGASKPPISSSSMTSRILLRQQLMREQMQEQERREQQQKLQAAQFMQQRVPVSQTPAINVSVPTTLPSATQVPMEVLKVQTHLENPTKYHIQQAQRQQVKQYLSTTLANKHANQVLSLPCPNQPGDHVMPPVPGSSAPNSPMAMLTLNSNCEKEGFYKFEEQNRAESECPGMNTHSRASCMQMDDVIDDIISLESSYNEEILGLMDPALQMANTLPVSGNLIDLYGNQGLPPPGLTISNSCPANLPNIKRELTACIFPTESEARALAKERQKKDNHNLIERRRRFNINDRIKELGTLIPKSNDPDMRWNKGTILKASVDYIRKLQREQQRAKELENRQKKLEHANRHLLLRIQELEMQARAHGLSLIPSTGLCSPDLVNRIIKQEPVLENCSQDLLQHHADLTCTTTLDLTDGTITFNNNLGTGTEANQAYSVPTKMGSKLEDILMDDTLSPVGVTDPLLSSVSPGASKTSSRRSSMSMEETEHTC
# [20] = molecular target: T6, Neuropeptide Y receptor type 1 (Homo sapiens, UniProt P25929); assay: IC50 of human NPY-Y1 blockers – cell-based, dose response (AID 1277); format: functional
# T6 sequence (P25929 whole entry): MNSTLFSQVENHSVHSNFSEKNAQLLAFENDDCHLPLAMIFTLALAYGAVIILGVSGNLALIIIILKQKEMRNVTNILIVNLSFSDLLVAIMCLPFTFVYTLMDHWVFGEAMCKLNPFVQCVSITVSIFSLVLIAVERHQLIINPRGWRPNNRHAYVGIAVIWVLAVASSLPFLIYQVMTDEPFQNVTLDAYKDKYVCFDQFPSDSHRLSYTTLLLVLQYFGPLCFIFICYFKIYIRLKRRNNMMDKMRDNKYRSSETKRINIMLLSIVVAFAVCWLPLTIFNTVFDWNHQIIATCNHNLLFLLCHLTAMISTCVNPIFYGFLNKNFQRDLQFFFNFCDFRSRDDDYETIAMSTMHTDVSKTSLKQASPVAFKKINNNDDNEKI
# [21] = Trypanosoma cruzi growth suppression in host cells – NIH3T3 host cells, beta-gal luminescence, confirmation (AID 2044); format: functional, cell-based;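 also: intracellular parasites grown in NIH/3T3 mouse fibroblasts as host cells; luminescent beta-galactosidase reporter signal from transgenic T. cruzi replicating inside host cells; inhibitors lower the luminescence signal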
# [22] = NIH3T3 cell viability loss – ATP luminescence, mouse fibroblasts, counter-screen, dose response (AID 2010); format: functional, cell-based;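 also: cells exposed to compound for about 90 hours before reading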
# HEK293 [23] = assay: inhibition of NOD1-driven NF-kB reporter – cell-based, luminescence, uHTS, primary screen (AID 1578); format: functional; conditions: Homo sapiens
# [24] = molecular target: T7, Neuropeptide Y receptor type 2 (Homo sapiens, UniProt P49146); assay: IC50 for human NPY-Y2 blockade – cell-based, counter-screen for NPY-Y1 antagonist project, dose response (AID 1278); format: functional
# T7 sequence (P49146 whole entry): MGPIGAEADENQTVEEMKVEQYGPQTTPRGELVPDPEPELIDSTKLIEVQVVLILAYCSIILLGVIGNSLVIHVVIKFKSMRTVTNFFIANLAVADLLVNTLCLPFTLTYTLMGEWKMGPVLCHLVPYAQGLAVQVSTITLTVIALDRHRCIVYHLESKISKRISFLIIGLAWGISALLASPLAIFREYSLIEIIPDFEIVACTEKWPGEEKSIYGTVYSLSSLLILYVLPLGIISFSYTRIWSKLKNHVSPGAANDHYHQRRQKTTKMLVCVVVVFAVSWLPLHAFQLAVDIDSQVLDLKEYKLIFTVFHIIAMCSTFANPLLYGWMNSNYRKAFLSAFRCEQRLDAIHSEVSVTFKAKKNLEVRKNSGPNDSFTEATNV
# [25] = molecular target: Sphingosine 1-phosphate receptor 2 (Homo sapiens, UniProt O95136); assay: Dose Response Cell Based Assay for Agonists of the S1P2 Receptor of Purchased Analogues. [Related pubchem assays: 729, 843, 854, 736 ]; format: functional
# [26] = molecular target: Serine/threonine-protein phosphatase PP1-alpha catalytic subunit (Homo sapiens, UniProt P62136); assay: inhibition of protein phosphatase 1 activity – biochemical, fluorescence, dose response (AID 2394)
# [27] = molecular target: Serine/threonine-protein phosphatase (Homo sapiens, UniProt Q9BPW0); assay: inhibition of protein phosphatase 5 activity – biochemical, fluorescence, dose response (AID 2395)
# Sequence of Serine/threonine-protein phosphatase (Q9BPW0 whole entry): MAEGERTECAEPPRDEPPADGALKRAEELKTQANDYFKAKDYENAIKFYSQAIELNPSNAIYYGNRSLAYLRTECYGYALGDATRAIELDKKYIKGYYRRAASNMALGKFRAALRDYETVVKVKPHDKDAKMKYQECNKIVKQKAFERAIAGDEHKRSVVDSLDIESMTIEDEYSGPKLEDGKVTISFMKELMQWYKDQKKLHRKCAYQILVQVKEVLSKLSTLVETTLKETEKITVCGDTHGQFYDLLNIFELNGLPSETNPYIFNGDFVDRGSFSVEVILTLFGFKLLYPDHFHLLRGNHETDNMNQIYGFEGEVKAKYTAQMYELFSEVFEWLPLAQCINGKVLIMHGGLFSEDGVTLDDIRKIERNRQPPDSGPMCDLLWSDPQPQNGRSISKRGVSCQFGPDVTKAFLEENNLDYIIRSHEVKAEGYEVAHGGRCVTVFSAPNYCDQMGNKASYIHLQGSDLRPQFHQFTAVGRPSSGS
# [28] = molecular target: T6, Neuropeptide Y receptor type 1; format: functional
# [29] = molecular target: T7, Neuropeptide Y receptor type 2; format: functional, cell-based
# T1 sequence (Q00975 whole entry): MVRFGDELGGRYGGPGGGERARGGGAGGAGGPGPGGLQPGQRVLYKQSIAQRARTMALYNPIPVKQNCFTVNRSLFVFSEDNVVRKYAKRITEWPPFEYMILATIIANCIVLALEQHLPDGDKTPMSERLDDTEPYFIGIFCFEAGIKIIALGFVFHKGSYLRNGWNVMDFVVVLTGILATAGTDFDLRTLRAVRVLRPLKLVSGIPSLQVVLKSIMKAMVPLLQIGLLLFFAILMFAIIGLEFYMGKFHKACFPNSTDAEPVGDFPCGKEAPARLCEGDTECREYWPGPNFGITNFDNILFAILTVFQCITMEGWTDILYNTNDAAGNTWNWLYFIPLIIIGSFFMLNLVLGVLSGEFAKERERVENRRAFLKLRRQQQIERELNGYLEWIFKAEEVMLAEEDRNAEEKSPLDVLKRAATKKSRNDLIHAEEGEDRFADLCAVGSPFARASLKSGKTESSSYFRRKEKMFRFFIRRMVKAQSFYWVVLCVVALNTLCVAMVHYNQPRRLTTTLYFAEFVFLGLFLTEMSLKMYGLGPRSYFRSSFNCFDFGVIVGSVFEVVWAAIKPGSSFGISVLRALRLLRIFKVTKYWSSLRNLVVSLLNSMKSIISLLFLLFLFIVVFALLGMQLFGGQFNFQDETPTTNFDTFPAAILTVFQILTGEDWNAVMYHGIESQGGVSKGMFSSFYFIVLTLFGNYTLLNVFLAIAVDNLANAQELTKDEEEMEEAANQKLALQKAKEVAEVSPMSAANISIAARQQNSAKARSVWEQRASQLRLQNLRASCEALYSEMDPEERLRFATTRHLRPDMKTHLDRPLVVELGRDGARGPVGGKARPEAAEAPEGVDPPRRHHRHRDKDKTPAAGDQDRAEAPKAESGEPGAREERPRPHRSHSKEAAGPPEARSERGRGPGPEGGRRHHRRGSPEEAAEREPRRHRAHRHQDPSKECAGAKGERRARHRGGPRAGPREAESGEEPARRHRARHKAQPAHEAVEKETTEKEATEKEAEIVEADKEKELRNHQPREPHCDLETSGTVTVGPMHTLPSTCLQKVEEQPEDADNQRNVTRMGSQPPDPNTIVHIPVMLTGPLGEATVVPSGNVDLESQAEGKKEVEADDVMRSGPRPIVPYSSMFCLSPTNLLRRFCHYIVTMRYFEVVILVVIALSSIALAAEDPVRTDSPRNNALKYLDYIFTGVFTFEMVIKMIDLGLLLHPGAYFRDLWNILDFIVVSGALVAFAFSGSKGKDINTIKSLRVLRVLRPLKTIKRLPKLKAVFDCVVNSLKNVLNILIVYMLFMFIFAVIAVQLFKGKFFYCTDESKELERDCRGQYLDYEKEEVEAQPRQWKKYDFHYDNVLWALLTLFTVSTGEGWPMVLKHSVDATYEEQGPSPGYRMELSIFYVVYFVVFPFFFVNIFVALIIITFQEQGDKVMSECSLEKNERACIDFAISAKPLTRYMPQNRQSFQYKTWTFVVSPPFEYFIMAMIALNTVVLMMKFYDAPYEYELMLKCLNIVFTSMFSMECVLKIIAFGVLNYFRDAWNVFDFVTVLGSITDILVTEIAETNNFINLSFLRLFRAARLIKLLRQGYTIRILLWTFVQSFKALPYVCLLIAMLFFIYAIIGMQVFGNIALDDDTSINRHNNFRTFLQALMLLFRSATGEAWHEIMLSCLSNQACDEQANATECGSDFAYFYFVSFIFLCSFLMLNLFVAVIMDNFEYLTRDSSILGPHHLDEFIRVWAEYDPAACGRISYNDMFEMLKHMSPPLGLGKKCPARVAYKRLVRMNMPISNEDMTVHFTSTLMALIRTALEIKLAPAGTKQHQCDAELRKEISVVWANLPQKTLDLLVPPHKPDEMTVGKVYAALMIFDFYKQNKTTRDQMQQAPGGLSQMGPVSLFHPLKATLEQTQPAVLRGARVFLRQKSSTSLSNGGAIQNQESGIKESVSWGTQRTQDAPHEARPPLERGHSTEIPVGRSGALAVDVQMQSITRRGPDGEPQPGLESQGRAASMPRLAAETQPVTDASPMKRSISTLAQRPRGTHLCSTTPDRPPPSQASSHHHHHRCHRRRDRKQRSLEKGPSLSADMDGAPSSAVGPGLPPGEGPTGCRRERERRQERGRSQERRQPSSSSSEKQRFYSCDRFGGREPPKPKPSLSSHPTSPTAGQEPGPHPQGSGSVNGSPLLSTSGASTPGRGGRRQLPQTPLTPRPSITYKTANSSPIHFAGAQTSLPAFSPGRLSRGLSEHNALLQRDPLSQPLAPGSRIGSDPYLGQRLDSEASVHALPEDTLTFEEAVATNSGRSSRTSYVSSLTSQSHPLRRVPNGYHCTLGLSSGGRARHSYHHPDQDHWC
# T1 sequence (Q02410 whole entry): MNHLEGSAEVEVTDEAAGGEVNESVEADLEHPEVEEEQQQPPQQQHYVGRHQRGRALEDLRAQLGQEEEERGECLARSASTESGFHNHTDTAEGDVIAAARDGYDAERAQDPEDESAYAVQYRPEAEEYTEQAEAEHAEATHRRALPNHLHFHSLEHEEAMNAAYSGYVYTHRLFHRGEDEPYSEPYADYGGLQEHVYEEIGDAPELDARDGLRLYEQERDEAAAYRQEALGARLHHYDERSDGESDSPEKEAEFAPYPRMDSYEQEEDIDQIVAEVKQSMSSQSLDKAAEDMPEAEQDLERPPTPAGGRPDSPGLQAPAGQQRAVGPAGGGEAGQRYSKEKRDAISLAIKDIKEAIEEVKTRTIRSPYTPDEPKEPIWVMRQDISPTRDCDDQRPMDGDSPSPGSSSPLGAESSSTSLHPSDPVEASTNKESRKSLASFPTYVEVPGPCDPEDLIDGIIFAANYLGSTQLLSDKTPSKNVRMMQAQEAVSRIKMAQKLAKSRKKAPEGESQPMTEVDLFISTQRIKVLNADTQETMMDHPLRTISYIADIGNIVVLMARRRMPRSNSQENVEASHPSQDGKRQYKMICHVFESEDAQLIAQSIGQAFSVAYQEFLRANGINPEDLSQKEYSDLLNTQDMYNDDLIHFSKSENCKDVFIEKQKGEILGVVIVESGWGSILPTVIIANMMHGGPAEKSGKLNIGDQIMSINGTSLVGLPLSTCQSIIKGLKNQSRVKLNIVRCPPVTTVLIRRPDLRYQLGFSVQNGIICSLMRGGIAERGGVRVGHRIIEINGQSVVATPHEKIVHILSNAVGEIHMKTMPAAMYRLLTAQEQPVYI
compound,measurement,setting,value
CC(=O)Oc1ccc(/C=N\NC(=O)c2cc3c(ccc4ccccc43)o2)cc1,IC50,[1],> 50 µM (inactive)
same,IC50,[2],4.06 µM (active)
same,IC50,[3],30 µM (active)
same,IC50,[4],4.3 µM (active)
same,IC50,[5],10.9 µM (active)
same,EC50,[6],> 195 µM (not active)
same,IC50,Prothrombin,75.6 µM (active)
same,IC50,[7],> 100 µM (active)
Cc1ccc(C(=O)Nc2nc3ccccc3[nH]2)cc1,AC50,[8],1.45 µM (active)
same,AC50,[9],> 52 µM (inactive)
same,AC50,[10],29.2 µM (active)
same,AC50,[11],35.2 µM (active)
same,IC50,[12],> 13.3 µM (not active)
same,AC50,[13],1.29 µM (active)
CN1C(=O)CC(C(=O)O)S/C1=N/c1cc(Cl)c(O)c(Cl)c1 (stereo not given),IC50,Estrogen receptor beta [14],26.9 µM (active)
same,IC50,Estrogen receptor beta [15],> 109 µM (not active)
CC1CC(C)CN(C2=CC(=[N+]3CCCC3)CC(C)(C)C2)C1 (stereo not given),IC50,HEK293 [16],7.24 µM (active)
same,IC50,HEK293 [17],12.3 µM (inactive)
same,IC50,HEK293 [18],> 20 µM (inactive)
same,AC50,[19],2.24 µM (active)
same,IC50,[20],15.1 µM (not active)
same,EC50,[21],0.159 µM (active)
same,EC50,[22],> 60 µM (not active)
same,EC50,HEK293 [23],2.22 µM (active)
same,IC50,[24],> 35 µM (not active)
Cc1cc(C(=O)COC(=O)CCS(=O)(=O)c2ccccc2)c(C)n1Cc1ccccc1,EC50,[25],> 30 µM (not active)
COC(=O)CCC(=O)OC1(C)C(=O)C=C2C=C(C3CC3)N(CC3CC3)C=C2C1=O (stereo not given),IC50,[26],63.6 µM (not active)
same,IC50,[27],17 µM (not active)
CCOc1ccc(Oc2c(/C=N/NC(C)=O)c(C)nn2-c2ccccc2)cc1,IC50,[28],8.9 µM (active)
same,IC50,[29],4.53 µM (active)
